Legend:
primary human T cells = experiment: T cell viability by flow cytometry (near-IR LIVE/DEAD stain); type: cell-based; settings: for cytotoxicity: concentration-dependent profiles, at <20 μM
Experimental: FIG. 4A-4D is an overview of a multidimensional screen to identify elaborated electrophilic compounds that suppress T cell activation. FIG. 4A is a workflow for T-cell activation screen. Primary human T cells were treated with a focused library of elaborated electrophilic compounds (10 μM, structures of compounds in FIG. 12), a positive control immunosuppressive compound (DMF, 50 μM), or DMSO under TCR-stimulating conditions in 96-well plates pre-coated with 5 μg/mL αCD3 and 2 μg/mL αCD28 for 24 h. T cell activation was measured using a combination of markers, including IL2 and IFNγ secretion, as well as surface expression of CD25 and CD69. T cell viability was measured by flow cytometry using a Fixable Near-IR LIVE/DEAD™ Cell Stain. Compounds were considered as active hits if they reduced IL2 cytokine production by >65% with <15% reduction in T cell viability in the cytotoxicity assay compared to DMSO control. […] FIG. 4C are structures of active hit compounds selected for follow-up studies, including two acrylamides (BPK-21, BPK-25), two chloroacetamides (EV-3, EV-93) and DMF as a positive control. FIG. 4D are line graphs showing T cell activation and cytotoxicity profiles for selected hit compounds.
Non-tissue culture treated 96-well plates were pre-coated with αCD3 (5 μg/mL) and αCD28 antibodies (2 μg/mL) in PBS (100 μL/well) and left at 4° C. overnight. Freshly isolated T cells were re-suspended in RPMI media supplemented with 10% FBS, L-glutamine (2 mM), penicillin (100 U/mL), and streptomycin ([…]) at 2×10^6 cells/mL. Compound stocks (200×) in DMSO were diluted to 2× stocks in the working RPMI media in another 96-well plate. The pre-coated 96-well treatment plates were washed with PBS ([…]), T cells (100 μL/well, 2×10^5 cells/well) were then added to the wells, followed by the addition of 2× compound stocks in RPMI media (100 μL). The outer wells of the plates were filled with media without cells to avoid the edge effect in the assay. The treatment was done overnight (24 h) at 37° C. in a 5% CO2 containing incubator. Following the treatment, the cells were transferred to a U-bottom 96-well plate and harvested by centrifugation (600 g, 3 min, 4° C.). The supernatants were kept and stored at −80° C. for further cytokine analysis, while the cells were washed with PBS (2×150 μL) prior to staining for flow cytometry analysis.
Following the PBS washes, the cells were stained with fixable near-IR LIVE/DEAD cell stain (Invitrogen) according to manufacturer's instructions. Briefly, one vial of near-IR LIVE/DEAD dye was resuspended in DMSO (50 μL) and diluted with PBS (1:1000). The diluted stain was added to each well (200 μL) and the cells were incubated for 30 min at room temperature in the dark. After this time, the cells were pelleted (600 g, 3 min, 4° C.), washed once with PBS (200 μL/well) and incubated with a freshly made cocktail of antibodies for the appropriate cell surface markers diluted in PBS containing 2% FBS (1:400 antibody dilution).

FAM213B and HLA-F = experiment: Expression-based proteomics (TMT-exp) of compound-treated T cells, FAM213B and HLA-F; type: cell-based, human; settings: 24 h; >3000 total proteins quantified
Experimental: FIG. 7B is a scatter plot representation of protein abundance changes caused by BPK-25 (10 μM, 24 h) in two independent replicate experiments, with decreases in NuRD complex components highlighted in red. FIG. 7C is a heatmap of top proteins with decreased abundance in BPK-25-treated T cells showing that the subset of these proteins in the NuRD complex (asterisks) were largely unaltered by other active compounds and blocked in their degradation by co-treatment with the proteasome inhibitor MG132. […] FIG. 7E is a bar graph […] showing time-dependent reductions in NuRD complex members in human T cells treated with BPK-25 (10 μM). Left, representative western blots. Right, quantification of changes in protein. […] FIG. 7G is a heat map showing the changes in cysteine reactivity for NuRD complex members in human T cells treated with BPK-25 and other active compounds.
Freshly isolated T cells (1.6×10^7 cells, 2×10^6 cells/mL in RPMI media) were treated with compound or DMSO for 24 h, pelleted (600 g, 5 min), and washed with PBS (1×10 mL). The cells were then transferred to an Eppendorf tube in additional PBS (1 mL), pelleted (600 g, 5 min), flash frozen, and kept at −80° C. until further analysis. […]
At individual TMT experiment level, the following filters were applied to remove low-quality peptides: removal of non-unique peptides; removal of half-tryptic peptides; removal of peptides with more than one internal miscleaved site; removal of cysteine-containing peptides; removal of peptides with low (<10,000) sum of reporter ion intensities for control channels, and peptides with high variation between the replicate control channels (coefficient of variance >0.5). R values (compound-treated vs. DMSO-treated) were calculated using the reporter ion intensities of compound and DMSO treated TMT channels for each treatment group. […] Proteins were required to have at least two unique quantified peptides in each experiment and were quantified in at least two independent experiments.

SMILES	cytotoxicity (primary human T cells)	reductions in FAM213B and HLA-F (FAM213B and HLA-F)	viability (primary human T cells; electrophilic compounds 10 μM each (DMF 50 μM), 24 h)
C=CC(=O)N(Cc1cccc(Cl)c1Cl)c1ccc(Oc2ccccc2)c(C(F)(F)F)c1 [BPK-21]	negligible cytotoxicity	also affected	–
C=CC(=O)N(Cc1cccc(Cl)n1)c1ccc(C(=O)Nc2ccccc2)nc1 [BPK-25]	negligible cytotoxicity	> 50%	–
COC(=O)/C=C/C(=O)OC [DMF, reference compound]	–	–	> 85%
O=C(CCl)N1CCN(S(=O)(=O)c2ccc(-c3ccncc3)cc2)CC1 [EV-3]	negligible cytotoxicity	also affected	–

Reference: patent US20240131032A1, “AN ACTIVITY-GUIDED MAP OF ELECTROPHILE-CYSTEINE INTERACTIONS IN PRIMARY HUMAN IMMUNE CELLS” (The Scripps Research Institute, priority 2019, published 2024)
